From patent US6506780B2, “Benzophenones and sulfones as inhibitors of glycine uptake” (Pfizer Inc., priority 2000, dated 2003)
Counter-ions that a name gives are not always drawn.

system: not given; settings: not given

| melting point [°C] | SMILES |
| --- | --- |
| 65 to 83 | CN(CCC(Oc1ccc(C(=O)c2ccc(C(F)(F)F)cc2)cc1)c1ccccc1)CC(=O)O (stereo not shown) (as salt: salt) |
| 58 to 72 | CN(CCC(Oc1ccc(C(=O)c2ccc(C(F)(F)F)cc2)cc1)c1ccc(F)cc1)CC(=O)O (stereo not shown) (as salt: salt) |
| 105 to 111 | CN(CCC(Oc1ccc(C(=O)c2nc3ccccc3s2)cc1)c1ccc(F)cc1)CC(=O)O (stereo not shown) (as salt: salt) |
| 75 to 85 | COc1ccc(C(=O)c2ccc(OC(CCN(C)CC(=O)O)c3ccc(F)cc3)cc2)cc1 (stereo not shown) (as salt: salt) |
| 75 to 85 | Cc1cccc(C(=O)c2ccc(OC(CCN(C)CC(=O)O)c3ccc(F)cc3)cc2)c1 (stereo not shown) (as salt: salt) |
| 85 to 93 | Cc1cccc(C(=O)c2ccc(OC(CCN(C)CC(=O)O)c3ccc(Cl)cc3)cc2)c1C (stereo not shown) (as salt: salt) |
| 60 to 70 | COc1ccc(C(=O)c2ccc(OC(CCN(C)CC(=O)O)c3ccc(Cl)cc3)cc2)cc1 (stereo not shown) (as salt: salt) |
| 70 to 80 | CC(C)c1ccc(C(=O)c2ccc(OC(CCN(C)CC(=O)O)c3ccc(F)cc3)cc2)cc1 (stereo not shown) (as salt: salt) |
| 63 to 68 | CN(CCC(Oc1ccc(C(=O)c2ccc(Cl)cc2)cc1)c1ccc(Cl)cc1)CC(=O)O (stereo not shown) (as salt: salt) |
| 65 to 83 | CN(CCC(Oc1ccc(C(=O)c2ccc(F)cc2)cc1)c1ccccc1)CC(=O)O (stereo not shown) (as salt: salt) |
| 75 to 85 | CN(CCC(Oc1ccc(C(=O)c2ccc(F)cc2F)cc1)c1ccc(Cl)cc1)CC(=O)O (stereo not shown) (as salt: salt) |
| 65 to 73 | Cc1cccnc1C(=O)c1ccc(OC(CCN(C)CC(=O)O)c2ccc(F)cc2)cc1 (stereo not shown) (as salt: salt) |
| 77 to 89 | CN(CCC(Oc1ccc(C(=O)c2ccc3ccccc3c2)cc1)c1ccccc1)CC(=O)O (stereo not shown) (as salt: salt) |
| 101 to 112 | CN(CCC(Oc1ccc(C(=O)c2cc3ccccc3s2)cc1)c1ccc(Cl)cc1)CC(=O)O (stereo not shown) (as salt: salt) |
| 65 to 75 | CN(CCC(Oc1ccc(C(=O)c2ccsc2)cc1)c1ccc(F)cc1)CC(=O)O (stereo not shown) (as salt: salt) |
| 80 to 100 | CN(CCC(Oc1ccc(C(=O)c2nccs2)cc1)c1ccc(Cl)cc1)CC(=O)O (stereo not shown) |
| 83 to 93 | Cc1cccc(C(=O)c2ccc(OC(CCN(C)CC(=O)O)c3ccc(F)cc3)cc2)c1C (stereo not shown) (as salt: salt) |
| 60 to 70 | CN(CCC(Oc1cccc(C(=O)c2ccncc2)c1)c1ccc(F)cc1)CC(=O)O (stereo not shown) |
| 71 to 85 | CN(CCC(Oc1ccc(C(=O)c2ccc(Cl)cc2)cc1)c1ccc(F)cc1)CC(=O)O (stereo not shown) (as salt: salt) |
| 65 to 71 | Cc1ccc(C(=O)c2ccc(OC(CCN(C)CC(=O)O)c3ccc(Cl)cc3)cc2)cc1 (stereo not shown) (as salt: salt) |
| 91 to 110 | CN(CCC(Oc1ccc(C(=O)c2ccsc2)cc1)c1ccc(Cl)cc1)CC(=O)O (stereo not shown) (as salt: salt) |

| melting point [°C] | SMILES |
| --- | --- |
| 77 to 87 | CN(CCC(Oc1ccc(C(=O)c2c(F)cccc2F)cc1)c1ccc(F)cc1)CC(=O)O (stereo not shown) (as salt: salt) |
| 60 to 70 | Cc1ccc(C(=O)c2ccc(OC(CCN(C)CC(=O)O)c3ccc(F)cc3)cc2)cc1 (stereo not shown) (as salt: salt) |
| 75 to 85 | CN(CCC(Oc1ccc(C(=O)c2ccccc2F)cc1)c1ccc(Cl)cc1)CC(=O)O (stereo not shown) (as salt: salt) |
| 68 to 78 | CN(CCC(Oc1cccc(C(=O)c2ccncc2)c1)c1ccc(Cl)cc1)CC(=O)O (stereo not shown) |
| 95 to 110 | Cc1cnc(C(=O)c2ccc(OC(CCN(C)CC(=O)O)c3ccc(F)cc3)cc2)s1 (stereo not shown) (as salt: salt) |
| 63 to 70 | CN(CCC(Oc1ccc(C(=O)c2ccc(C(F)(F)F)cc2)cc1)c1ccc(Cl)cc1)CC(=O)O (stereo not shown) (as salt: salt) |
| 182 to 192 | Cc1cnc(C(=O)c2ccc(OC(CCN(C)CC(=O)O)c3ccc(Cl)cc3)cc2)s1 (stereo not shown) (as salt: salt) |
| 72 to 82 | CN(CCC(Oc1ccc(C(=O)c2ccncc2)cc1)c1ccc(Cl)cc1)CC(=O)O (stereo not shown) |
| 91 to 100 | CN(CCC(Oc1ccc(C(=O)c2cccc3ccccc23)cc1)c1ccc(F)cc1)CC(=O)O (stereo not shown) (as salt: salt) |
| 68 to 80 | CN(CCC(Oc1ccc(C(=O)c2ccccn2)cc1)c1ccc(F)cc1)CC(=O)O (stereo not shown) (as salt: salt) |
| 65 to 75 | CN(CCC(Oc1ccc(C(=O)c2ccc(F)cc2F)cc1)c1ccc(F)cc1)CC(=O)O (stereo not shown) (as salt: salt) |
| 98 to 108 | CN(CCC(Oc1ccc(C(=O)c2nccs2)cc1)c1ccc(F)cc1)CC(=O)O (stereo not shown) (as salt: salt) |
| 87 to 97 | CN(CCC(Oc1ccc(C(=O)c2ccc3ccccc3c2)cc1)c1ccc(F)cc1)CC(=O)O (stereo not shown) (as salt: salt) |
| 80 to 95 | CN(CCC(Oc1ccc(C(=O)c2ccccc2)cc1)c1ccc(F)cc1)CC(=O)O (stereo not shown) (as salt: salt) |
| 90 to 100 | CN(CCC(Oc1ccc(C(=O)c2cc3ccccc3s2)cc1)c1ccc(F)cc1)CC(=O)O (stereo not shown) (as salt: salt) |
| 95 to 100 | CN(CCC(Oc1ccc(S(=O)(=O)c2ccccc2)cc1)c1ccccc1)CC(=O)O (stereo not shown) (as salt: salt) |
| 60 to 75 | CN(CCC(Oc1ccc(C(=O)c2cc(C(F)(F)F)cc(C(F)(F)F)c2)cc1)c1ccc(F)cc1)CC(=O)O (stereo not shown) |
| 55 to 65 | Cc1ccc(C(=O)c2ccc(OC(CCN(C)CC(=O)O)c3ccc(F)cc3)cc2)nc1 (stereo not shown) |
| 52 to 65 | CN(CCC(Oc1ccc(C(=O)c2ccncc2)cc1)c1ccc(F)cc1)CC(=O)O (stereo not shown) (as salt: salt) |
| 85 to 95 | Cc1ccc(C(=O)c2ccc(OC(CCN(C)CC(=O)O)c3ccccc3)cc2)cc1 (stereo not shown) (as salt: salt) |
| 65 to 75 | CN(CCC(Oc1ccc(C(=O)c2ccccc2F)cc1)c1ccc(F)cc1)CC(=O)O (stereo not shown) (as salt: salt) |

system: NMDA receptor; settings: effect blocked by a specific NMDA-site antagonist and a glycine-site antagonist; cited from earlier work

| SMILES | post synaptic current driven by the NMDA receptor |
| --- | --- |
| CN(CCC(Oc1ccc(-c2ccccc2)cc1)c1ccc(F)cc1)CC(=O)O (stereo not shown) [NFPS] | increased the post synaptic current driven by the NMDA receptor |
